Reference: patent publication US20230210861A1 (priority 2020, published 2023)
Several values for one entry are separate records, joined by “and”; a condition that tells them apart may be missing. Equal values may be shown once. Entries after “also recorded” stand apart in the source; their conditions may differ. Where a name gives a salt, the structure may show the parent alone.

Columns and labels:
human alpha3beta4 nAChR [1] = target: T1, human alpha3beta4 nAChR (Homo sapiens, UniProt P30926+P32297); experiment: Agonist activity at human alpha3beta4 nAChR expressed in Xenopus oocytes (two-electrode voltage clamp); assay type: cell-based; conditions: for agonist character at nAChR alpha3beta4: in words
T1 sequence (P32297 32-505): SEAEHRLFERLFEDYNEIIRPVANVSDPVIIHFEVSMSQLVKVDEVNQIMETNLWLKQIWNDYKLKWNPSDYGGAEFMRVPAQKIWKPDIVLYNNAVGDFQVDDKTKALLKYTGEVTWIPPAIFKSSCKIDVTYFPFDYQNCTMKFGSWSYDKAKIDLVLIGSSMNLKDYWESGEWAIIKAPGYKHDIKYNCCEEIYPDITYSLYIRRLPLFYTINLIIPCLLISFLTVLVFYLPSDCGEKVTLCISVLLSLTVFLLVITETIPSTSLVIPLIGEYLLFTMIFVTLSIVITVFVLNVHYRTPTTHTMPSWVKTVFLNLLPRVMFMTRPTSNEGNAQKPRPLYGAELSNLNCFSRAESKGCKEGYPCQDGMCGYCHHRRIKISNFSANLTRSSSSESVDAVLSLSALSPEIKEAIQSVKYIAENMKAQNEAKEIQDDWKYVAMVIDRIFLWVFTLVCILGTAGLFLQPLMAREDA
T1 sequence (P30926 22-498): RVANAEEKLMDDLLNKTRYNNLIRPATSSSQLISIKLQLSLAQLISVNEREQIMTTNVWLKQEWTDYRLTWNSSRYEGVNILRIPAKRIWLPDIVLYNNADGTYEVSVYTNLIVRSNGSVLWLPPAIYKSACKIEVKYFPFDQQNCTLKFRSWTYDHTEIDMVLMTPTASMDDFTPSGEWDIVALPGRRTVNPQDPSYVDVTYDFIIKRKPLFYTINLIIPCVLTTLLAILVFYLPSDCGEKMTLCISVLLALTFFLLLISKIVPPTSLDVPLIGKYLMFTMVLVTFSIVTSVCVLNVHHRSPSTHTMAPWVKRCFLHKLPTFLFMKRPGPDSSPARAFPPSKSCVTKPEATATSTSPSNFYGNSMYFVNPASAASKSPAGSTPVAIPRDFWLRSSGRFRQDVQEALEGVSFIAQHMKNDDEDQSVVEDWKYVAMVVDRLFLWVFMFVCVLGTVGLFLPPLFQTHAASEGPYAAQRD
Description: (§1) Agonist Preparation: See Example 1.

human alpha4beta2 nAChR [2] = target: T2, human alpha4beta2 nAChR (Homo sapiens, UniProt P17787+P43681); experiment: Agonist activity at human alpha4beta2 nAChR expressed in Xenopus oocytes (two-electrode voltage clamp); assay type: cell-based; conditions: for effect on the subsequent ACh-evoked current, alpha4beta2: after the agonist concentration series; for agonist character at nAChR alpha4beta2: in words
T2 sequence (P43681 29-627 limits assumed): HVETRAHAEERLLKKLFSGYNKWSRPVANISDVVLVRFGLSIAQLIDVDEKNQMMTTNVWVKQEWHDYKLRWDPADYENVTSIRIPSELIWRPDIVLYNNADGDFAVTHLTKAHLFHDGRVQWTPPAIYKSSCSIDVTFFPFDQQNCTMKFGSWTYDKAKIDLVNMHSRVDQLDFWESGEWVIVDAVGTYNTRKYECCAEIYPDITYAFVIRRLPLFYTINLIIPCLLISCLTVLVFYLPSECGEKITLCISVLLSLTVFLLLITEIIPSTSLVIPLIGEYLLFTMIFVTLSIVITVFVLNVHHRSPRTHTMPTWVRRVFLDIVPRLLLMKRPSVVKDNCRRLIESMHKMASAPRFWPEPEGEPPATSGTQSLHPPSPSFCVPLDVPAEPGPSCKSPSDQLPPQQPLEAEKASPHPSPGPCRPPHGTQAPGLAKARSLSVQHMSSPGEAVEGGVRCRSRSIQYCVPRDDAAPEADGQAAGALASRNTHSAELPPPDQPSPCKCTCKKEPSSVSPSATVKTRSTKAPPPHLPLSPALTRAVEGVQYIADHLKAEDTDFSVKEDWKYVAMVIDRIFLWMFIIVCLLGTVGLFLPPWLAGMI
T2 sequence (P17787 26-502): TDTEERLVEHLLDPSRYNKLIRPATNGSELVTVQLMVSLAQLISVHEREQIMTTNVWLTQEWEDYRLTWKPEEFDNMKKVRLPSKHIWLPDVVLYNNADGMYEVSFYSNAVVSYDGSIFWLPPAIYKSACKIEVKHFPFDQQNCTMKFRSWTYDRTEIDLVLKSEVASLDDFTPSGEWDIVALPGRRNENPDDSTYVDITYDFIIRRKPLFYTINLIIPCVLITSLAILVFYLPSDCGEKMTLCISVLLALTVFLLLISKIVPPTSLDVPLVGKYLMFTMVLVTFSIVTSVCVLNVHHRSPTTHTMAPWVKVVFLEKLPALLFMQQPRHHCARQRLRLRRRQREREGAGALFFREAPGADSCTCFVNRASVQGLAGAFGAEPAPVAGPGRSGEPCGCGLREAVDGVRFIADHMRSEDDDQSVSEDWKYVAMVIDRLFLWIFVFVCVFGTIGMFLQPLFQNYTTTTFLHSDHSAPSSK
Description: as §1

human alpha7 nAChR [3] = target: T3, human alpha7 nAChR (Homo sapiens, UniProt P36544); experiment: Agonist activity at human alpha7 nAChR expressed in Xenopus oocytes (two-electrode voltage clamp); assay type: cell-based; conditions: for agonist character at nAChR alpha7: in words
T3 sequence (P36544 23-502): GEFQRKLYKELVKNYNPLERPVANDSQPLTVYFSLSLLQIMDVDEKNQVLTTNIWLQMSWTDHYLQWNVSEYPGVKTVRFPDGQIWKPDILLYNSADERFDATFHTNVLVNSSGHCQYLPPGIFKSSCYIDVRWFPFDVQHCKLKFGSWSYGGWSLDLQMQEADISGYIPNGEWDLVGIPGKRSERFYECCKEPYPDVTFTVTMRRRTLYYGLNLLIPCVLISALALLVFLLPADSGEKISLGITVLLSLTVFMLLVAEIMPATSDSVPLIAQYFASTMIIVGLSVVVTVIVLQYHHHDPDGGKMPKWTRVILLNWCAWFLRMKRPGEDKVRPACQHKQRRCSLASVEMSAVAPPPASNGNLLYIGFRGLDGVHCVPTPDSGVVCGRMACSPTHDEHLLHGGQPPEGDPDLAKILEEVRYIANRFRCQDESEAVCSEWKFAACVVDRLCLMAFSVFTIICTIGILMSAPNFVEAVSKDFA
Description: as §1

[4] = target: human alpha4alpha6beta2 nAChR (Homo sapiens, UniProt P17787+P43681+Q15825); experiment: Agonist activity at human alpha4alpha6beta2 nAChR expressed in Xenopus oocytes (two-electrode voltage clamp); assay type: cell-based; conditions: for agonist character at nAChR alpha4alpha6beta2: in words
human alpha4alpha6beta2 nAChR, sequence (P43681 29-627 limits assumed): as the sequence (P43681 29-627 limits assumed) above
human alpha4alpha6beta2 nAChR, sequence (Q15825 26-494): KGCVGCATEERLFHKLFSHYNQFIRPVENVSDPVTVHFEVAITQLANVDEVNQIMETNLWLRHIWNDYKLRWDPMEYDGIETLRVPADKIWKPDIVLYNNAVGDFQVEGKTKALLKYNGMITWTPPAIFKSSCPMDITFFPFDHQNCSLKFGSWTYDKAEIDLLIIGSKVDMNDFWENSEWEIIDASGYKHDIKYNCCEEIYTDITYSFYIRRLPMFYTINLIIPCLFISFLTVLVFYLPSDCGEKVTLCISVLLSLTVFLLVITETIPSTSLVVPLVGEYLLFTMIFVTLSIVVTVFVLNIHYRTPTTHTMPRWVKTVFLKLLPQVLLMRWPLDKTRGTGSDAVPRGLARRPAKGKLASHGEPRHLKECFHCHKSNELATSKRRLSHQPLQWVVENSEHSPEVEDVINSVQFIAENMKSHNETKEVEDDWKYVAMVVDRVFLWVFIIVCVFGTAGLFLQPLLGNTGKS
human alpha4alpha6beta2 nAChR, sequence (P17787 26-502): as the sequence (P17787 26-502) above
Description: as §1

[5] = target: T4, human alpha3alpha5beta4 nAChR (Homo sapiens, UniProt P30926+P32297); experiment: Agonist activity at human alpha3alpha5beta4 nAChR expressed in Xenopus oocytes (two-electrode voltage clamp); conditions: for EC50: EC50 at nAChR alpha3alpha5beta4, test concentrations 0.1-300 uM; for agonist character at nAChR alpha3alpha5beta4: in words
T4 sequence (P32297 32-505): as the sequence (P32297 32-505) above
T4 sequence (P30532 23-468 partner): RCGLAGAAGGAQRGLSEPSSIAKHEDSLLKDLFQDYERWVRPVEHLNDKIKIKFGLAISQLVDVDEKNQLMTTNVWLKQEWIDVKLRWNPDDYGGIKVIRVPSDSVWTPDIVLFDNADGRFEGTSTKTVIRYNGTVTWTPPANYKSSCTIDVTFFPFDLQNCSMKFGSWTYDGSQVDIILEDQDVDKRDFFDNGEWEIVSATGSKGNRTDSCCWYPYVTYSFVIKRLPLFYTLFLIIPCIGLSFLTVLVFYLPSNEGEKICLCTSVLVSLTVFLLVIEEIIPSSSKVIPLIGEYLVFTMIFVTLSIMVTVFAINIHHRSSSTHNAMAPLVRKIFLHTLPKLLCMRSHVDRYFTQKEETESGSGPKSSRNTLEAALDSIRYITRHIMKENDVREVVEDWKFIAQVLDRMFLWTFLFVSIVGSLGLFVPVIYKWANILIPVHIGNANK
T4 sequence (P30926 22-498): as the sequence (P30926 22-498) above
Description: (§2) All experiments were carried out at human nAChRs expressed in Xenopus oocytes using the method of cDNA expression. Xenopus oocytes were prepared and injected using standard procedures.
Briefly, ovaries were harvested from Xenopus Laevis females that have been deeply anesthetized by cooling at 4° C. and Tricaine methanesulfonate (MS-222 at a concentration of 150 mg/L) in sodium bicarbonate (300 mg/L). Once anesthetized the animal was decapitated and pithed following the rules of animal rights from the Geneva canton. A small piece of ovary was isolated for immediate preparation while the remaining part was placed at 4° C. in a sterile Barth solution containing in mM NaCl 88, KCl 1, NaHCO3 2.4, HEPES 10, MgSO4·7H2O 0.82, Ca(NO3)2·4H2O 0.33, CaCl2·6H2O 0.41, at pH 7.4, and supplemented with 20 ug/ml of kanamycin, 100 unit/ml penicillin. All recordings were performed at 18° C. and cells superfused with OR2 medium containing in mM: NaCl 88, KCl 2.5, HEPES 5, CaCl2·2H2O 1.8, MgCl2·6H2O 1, pH 7.4.
(§3) Currents evoked by ACh or other agonists were recorded using an automated process equipped with standard two-electrode voltage-clamp configuration (TEVC). Data were captured and analyzed using a HiQScreen proprietary data acquisition and analysis software running under Matlab (Mathworks Inc.).
ACh was prepared as a concentrated stock solution (10^−1M) in water and then diluted in the recording medium to obtain the desired test concentration. Compounds were dissolved in OR2 as stock solution (1 mM) and the final dilution to the desired concentration was made on the day of the experiment. OR2 medium contains in mM: NaCl 88.5, KCl 2.5, HEPES 5, CaCl2·2H2 1.8, MgCl2·6H2 1, pH 7.4.
The test concentration of acetylcholine chloride was 1280 uM.
(§4) Injections of cDNAs encoding for the human alpha3beta4, alpha3alpha5beta4, alpha4beta2, and alpha7 were performed in at least 95 oocytes were performed using a proprietary automated injection and receptor expression examined at least two days later. Oocytes were poked with two electrodes and their membrane potential maintained, unless indicated, at −80 mV throughout the experiment.
A protocol to determine agonistic activity in the oocytes expressing the nAChRs was developed. The cells were exposed to a series of increasing concentrations of a compound agonist for 10 seconds each at two minute intervals. The current evoked from exposure to the agonist at each concentration was recorded. For oocytes expressing alpha7 nAChRs, exposure to the agonist was reduced to 5 seconds. This process was repeated for each agonist tested against each type of nAChR expressing cell.
Experimental Procedures: Injections of cDNAs encoding for the human alpha3beta4, alpha3alpha5beta4, alpha4beta2, alpha4alpha6beta2, and alpha7 were performed in at least 95 oocytes using a proprietary automated injection device. Cellular receptor expression was examined at least two days later. Oocytes were poked with two electrodes and their membrane potential maintained, unless indicated, at −80 mV throughout the experiment.
A protocol to determine agonistic activity in the oocytes expressing the nAChRs was developed. Oocytes expressing a nAChR subtype were exposed to a brief test pulse of acetylcholine (1280 uM) while the holding current and response was evaluated. Cells displaying robust currents were washed for 90 seconds. The cells were then exposed to a series of increasing concentrations of a nAChR agonist for 10 seconds each at two minute intervals. The nAChR agonist test concentrations were 0.1, 0.3, 1, 3, 10, 30, 100, 300 (uM). The current evoked from exposure to the agonist at each concentration was recorded.

human alpha3beta4 nAChR [6] = target: T1, human alpha3beta4 nAChR; experiment: Desensitization / antagonistic activity, cumulative exposure in the low concentration range, alpha3beta4 in Xenopus oocytes; assay type: cell-based; conditions: concentrations up to 300 nM, in words
human alpha3beta4 nAChR [7] = target: T1, human alpha3beta4 nAChR; experiment: Sustained exposure to 300 uM varenicline tartrate and its recovery, alpha3beta4; assay type: cell-based; conditions: 300 uM applied during three minutes; in words
Caco-2 cells = experiment: Caco-2 cell viability, CellTiter-Glo assay; assay type: cell-based, human
Description: In parallel, cell viability in the presence of varenicline tartrate and/or copper chloride was determined using CellTiter-Glo assay (Promega), which measures intracellular adenosine triphosphate levels.
Cells treated with DMSO (solvent control) served as controls. Following incubation, […] of CellTiter-Glo substrate was added to each well and the samples were incubated for 10 min on a rocking platform. Following this 10 min incubation, luminescence was recorded using a POLAR star OPTIMA plate reader (BMG Labtech). Samples were run in triplicate and data is normalized with mean luminescence of DMSO only treated cells as 100% viability.
All statistical analyses were performed using GraphPad Prism (version 9, GraphPad Software, Inc.).

SARS-CoV-2 = experiment: Infection of Caco-2 cells after exposure to SARS-CoV-2 (plaque titration of supernatant); conditions: for percentage of Caco-2 cells infected with SARS-CoV-2, concentration dependence: 24 hours after exposure, MOI of 3, versus vehicle control, in words
[8] = target: nAChR subtype alpha6beta2 (Homo sapiens, UniProt P17787+Q15825); conditions: in words; no experiment described; cited from earlier work
nAChR subtype alpha6beta2, sequence (Q15825 26-494): as the sequence (Q15825 26-494) above
nAChR subtype alpha6beta2, sequence (P17787 26-502): as the sequence (P17787 26-502) above

[9] = Pharmacokinetics in human subjects after 28 days of intranasal administration of Compound 1 hemigalactarate salt (Example 5); assay type: in vivo
Description: Blood plasma for the patients was collected on Day 29 predose (time 0) and after a series of time points (10 min, 20 min, 30 min, 1 hr, 2 hrs, 4 hrs, 5 hrs, 6 hrs, 7 hrs, 8 hrs, and 24 hrs) after a single administration of drug. The blood plasma was analyzed for Compound 1.
The following pharmacokinetic parameters for Compound 1 were calculated: • Cmax: Maximum observed concentration, observed by inspection of individual study participant plasma concentration time plots. • Tmax: Time of maximum observed concentration, obtained directly from the observed concentration time data. • AUClast: The area under the plasma concentration time curve, from time 0 to the last measurable non-zero concentration, calculated by a combination of linear and logarithmic trapezoidal methods (Linear up/log down method). • AUC0-4 h: The area under the plasma concentration time curve, from time 0 to the 4 h time point, calculated by a combination of linear and logarithmic trapezoidal methods (Linear up/log down method). • AUCinf: The area from zero time (pre-dose) extrapolated to infinite time (AUCinf) will be calculated as follows: AUCinf=AUClast+Cz/λz • AUC % Extrap: The percentage of AUCinf obtained by extrapolation (AUC % Extrap) will be calculated as follows: […]

[10] = target: nAChR subtype alpha3beta2 (Homo sapiens, UniProt P17787+P32297); conditions: in words; no experiment described; cited from earlier work
nAChR subtype alpha3beta2, sequence (P32297 32-505): as the sequence (P32297 32-505) above
nAChR subtype alpha3beta2, sequence (P17787 26-502): as the sequence (P17787 26-502) above

[11] = target: T4, human alpha3alpha5beta4 nAChR; experiment: Desensitization / antagonistic activity, cumulative exposure in the low concentration range, alpha3alpha5beta4 in Xenopus oocytes; assay type: cell-based; conditions: concentrations up to 300 nM; in words; dihydrate
human alpha4beta2 nAChR [12] = target: T2, human alpha4beta2 nAChR; experiment: Desensitization / antagonistic activity, cumulative exposure in the low concentration range, alpha4beta2 in Xenopus oocytes; assay type: cell-based; conditions: concentrations up to 300 nM; in words; dihydrate
human alpha7 nAChR [13] = target: T3, human alpha7 nAChR; experiment: Desensitization / antagonistic activity, cumulative exposure in the low concentration range, alpha7 in Xenopus oocytes; assay type: cell-based; conditions: concentrations up to 300 nM; in words; dihydrate
Description: as §2, §3, §4

[14] = listed as Compound 1 citrate, mono-citrate
[15] = test concentrations 0.1-300 uM, ACh 1280 uM reference
[16] = listed as Compound 1 hemi-galactarate dihydrate, dihydrate

Molecule: C(=C\[C@H]1CCNC1)/c1cncnc1 [compound 1 citrate, (R)-5-((E)pyrrolidin-3-ylvinyl)pyrimidine mono-citrate]
- agonist character at nAChR alpha3beta4 (human alpha3beta4 nAChR [1]; [14]): almost as a full agonist
- effect on the subsequent ACh-evoked current, alpha4beta2 (human alpha4beta2 nAChR [2]; mono-citrate): Significant inhibition of the current evoked by the second Ach exposure
- agonist character at nAChR alpha4beta2 (human alpha4beta2 nAChR [2]; [14]): almost as a full agonist
- current evoked at 300 uM, percent of the maximal ACh-evoked current, alpha7 (human alpha7 nAChR [3]; [14]): 25%
- current evoked at 300 uM, percent of the maximal ACh-evoked current, alpha7 (human alpha7 nAChR [3]; mono-citrate): 25%
- agonist character at nAChR alpha7 (human alpha7 nAChR [3]; [14]): poor agonist
- agonist character at nAChR alpha7 (human alpha7 nAChR [3]; mono-citrate): weak partial agonist
- agonist character at nAChR alpha4alpha6beta2 [4, 14]: almost as a full agonist
- EC50 ([5]; ACh 1280 uM reference): 83 ± 9.05 µM
- agonist character at nAChR alpha3alpha5beta4 [5, 14]: almost as a full agonist

Molecule: varenicline tartrate [reference compound]
- agonist character at nAChR alpha3beta4 (human alpha3beta4 nAChR [1]): partial agonist
- EC50 at nAChR alpha3beta4 (human alpha3beta4 nAChR [1]; [15]): low micromolar range
- effect on the subsequent ACh-evoked current, alpha4beta2 (human alpha4beta2 nAChR [2]): major inhibition of the subsequent ACh-evoked current
- agonist character at nAChR alpha4beta2 (human alpha4beta2 nAChR [2]): partial agonist
- agonist character at nAChR alpha4beta2 (human alpha4beta2 nAChR [2]; listed as Varenicline tartrate): very poor agonist
- EC50 at nAChR alpha4beta2 (human alpha4beta2 nAChR [2]; [15]): low micromolar range
- inhibition of ACh-evoked current on sustained exposure, alpha3beta4 (human alpha3beta4 nAChR [6]): very modest effect; also recorded: no significant inhibition
- current evoked by sustained exposure, alpha3beta4 (human alpha3beta4 nAChR [7]): larger current amplitude; also recorded: rather large response
- cellular viability at 72 hours post-drug exposure (Caco-2 cells; even at 100 uM varenicline tartrate): no significant impact on cellular viability
- infection rate of the cells without copper chloride (SARS-CoV-2; 0.1 uM and 0.5 uM varenicline tartrate, 24 hours, MOI 3, normalized to untreated (FIG. 3)): ~100%
- percentage of Caco-2 cells infected with SARS-CoV-2, concentration dependence (SARS-CoV-2): dose-dependent decrease
- agonist character at nAChR alpha3alpha5beta4 [5]: partial agonist
- EC50 at nAChR alpha3alpha5beta4 [5, 15]: low micromolar range

Molecule: [Cl][Cu][Cl] [copper chloride]
- cellular viability at 72 hours post-drug exposure (Caco-2 cells; copper chloride concentrations of less than 1 uM): no significant impact on cellular viability
- cellular viability at 72 hours post-drug exposure (Caco-2 cells; exposures greater than 1 uM copper chloride): Some cellular toxicity
- percentage of Caco-2 cells infected with SARS-CoV-2, concentration dependence (SARS-CoV-2): dose-dependent decrease

Molecule: c1cnc2cc3c(cc2n1)[C@@H]1CNC[C@H]3C1 [varenicline]
- agonist character at nAChR alpha3beta4 (human alpha3beta4 nAChR [1]): partial agonist
- agonist character at nAChR alpha4beta2 (human alpha4beta2 nAChR [2]): partial agonist
- agonist character at nAChR alpha7 (human alpha7 nAChR [3]): full agonist
- effect on the subsequent ACh-evoked current, alpha4alpha6beta2 ([4]; after the agonist concentration series): significant inhibition of the subsequent ACh-evoked current
- response compared to the ACh response, alpha4alpha6beta2 ([4]; concentrations from 0.1 uM to 300 uM): ≤ 6%
- agonist character at nAChR alpha4alpha6beta2 [4]: weak partial agonist
- agonist character at nAChR alpha6beta2 [8]: partial agonist
- agonist character at nAChR alpha3alpha5beta4 [5]: partial agonist

Molecule: C(=C\[C@H]1CCNC1)/c1cncnc1 [Compound 1, (R)-5-((E)-2-pyrrolidin-3-ylvinyl)pyrimidine]
- agonist character at nAChR alpha3beta4 (human alpha3beta4 nAChR [1]): full agonist
- agonist character at nAChR alpha4beta2 (human alpha4beta2 nAChR [2]): full agonist
- agonist character at nAChR alpha7 (human alpha7 nAChR [3]): full agonist; also recorded: weak partial agonist
- agonist character at nAChR alpha4alpha6beta2 [4]: full agonist
- AUC % Extrap, Max ([9]; Day 29, N=7): 41.1%
- AUC % Extrap, Mean ([9]; Day 29, N=7): 21.3%
- AUC % Extrap, Median ([9]; Day 29, N=7): 23.3%
- AUC % Extrap, Min ([9]; Day 29, N=7): 3.69% and 3.67%
- detection in plasma ten minutes after administration ([9]; Day 29, 7 subjects): detected in plasma from all subjects
- fraction cleared from systemic circulation before the next administration ([9]; if administered every 12 hours (4 half-lives), from maximum half-life 2.83 h): > 94%
- agonist character at nAChR alpha3beta2 [10]: partial agonist
- agonist character at nAChR alpha3alpha5beta4 [5]: full agonist

Molecule: C(=C\[C@H]1CCNC1)/c1cncnc1 [compound 1 hemi-galactarate dihydrate, (R)-5-((E)-2-pyrrolidin-3-ylvinyl)pyrimidine hemigalactarate dihydrate]
- agonist character at nAChR alpha3beta4 (human alpha3beta4 nAChR [1]; [16]): almost as a full agonist
- current evoked, percent of the maximal ACh-evoked currents, alpha3beta4 (human alpha3beta4 nAChR [1]; maximal response): about 94%
- effect on the subsequent ACh-evoked current, alpha4beta2 (human alpha4beta2 nAChR [2]; dihydrate): enhanced the subsequent ACh-evoked currents
- agonist character at nAChR alpha4beta2 (human alpha4beta2 nAChR [2]; [16]): more potent agonist than ACh
- evoked currents larger than the maximal ACh responses, alpha4beta2 (human alpha4beta2 nAChR [2]; relative to maximal ACh response): about 2 fold
- current evoked at 300 uM, percent of the maximal ACh-evoked current, alpha7 (human alpha7 nAChR [3]; dihydrate): 24%
- agonist character at nAChR alpha7 (human alpha7 nAChR [3]; dihydrate): poor agonist
- agonist character at nAChR alpha7 (human alpha7 nAChR [3]; [16]): more potent agonist than ACh
- inhibition of ACh-evoked current on sustained exposure, alpha3beta4 (human alpha3beta4 nAChR [6]; dihydrate): insensitive; also recorded: no significant inhibition
- inhibition of ACh-evoked current on sustained exposure, alpha3alpha5beta4 [11]: marked inhibition; also recorded: inhibits in a concentration-dependent manner
- inhibition of ACh-evoked current on sustained exposure, alpha4beta2 (human alpha4beta2 nAChR [12]): marked inhibition; also recorded: inhibits in a concentration-dependent manner
- inhibition of ACh-evoked current on sustained exposure, alpha7 (human alpha7 nAChR [13]): insensitive; also recorded: no significant inhibition
- EC50 ([5]; ACh 1280 uM reference): 32.1 ± 2.16 µM
- agonist character at nAChR alpha3alpha5beta4 [5, 16]: almost as a full agonist
- current evoked, percent of the maximal ACh-evoked currents, alpha3alpha5beta4 ([5]; maximal response): about 94%
